# Laboratory results published in patent publication US20160354303A1, “Method, Compositions, And Kit For Modulating The Appearance Of Volume On Keratin Surfaces” (ELC MANAGEMENT LLC, priority 2014, published 2016).
# Test system: Human subcutaneous preadipocytes
# Test: Adipocyte differentiation assay: inhibition of adipogenesis, glycerol liberated from triglyceride (Zen-Bio)
# Format: cell-based
# Settings: for adipogenesis: inhibition in presence of 1 uM Rosiglitazone, OD at 540 nm, glycerol liberated from triglyceride, FIGS. 2 and 3
# Protocol: Conjugated linoleic acid and resveratrol were tested for their ability to promote the appearance of decreased volume. Cell culture, treatment, and differentiation assay was performed by Zen-Bio, RTF, NC. Human subcutaneous preadipocytes, lot number: were cultured in 96-well plates. The donor information is as follows: • Lot #: L061103 • […] • […] • B.M.I.: 25.2 Stimulation was treated in the presence of 0.1 uM Rosiglitazone Maleate. Inhibition was treated in the presence of 1.0 uM Rosiglitazone Maleate. Day 1: Plated cells and allowed cells to adhere. Day 2: Changed medium to Initiation medium containing the compounds or controls. Day 5: Changed medium to Adipocyte medium with the compounds. Day 8: Changed medium to Adipocyte medium with the compounds. Day 11: Changed medium to Adipocyte medium with the compounds. Day 13: Cells were washed with PBS and lysed with the lysis buffer. Reagent B was added to each well and the cells were incubated at 37° C. for 2 hours. Aliquots of the lysates were diluted with PBS, then Reagent A was added to each well. The optical density was read at 540 nm after 15 minutes. The reagent measures the amount of glycerol liberated from triglyceride. Data were analyzed using a one-way ANOVA and significant means were tested by Bonferroni multiple comparison test using Instat software. Cell culture, treatment, and differentiation assay was performed by Zen-Bio, RTF, NC. Human subcutaneous preadipocytes, lot number: were cultured in 96-well plates. The donor information is as follows: • Lot#: SL0029 • Gender: Female (all lots) […] ([…]) Human subcutaneous preadipocytes were cultured in 96-well plates. Day 1: Plated cells and allowed cells to adhere. Day 2: Changed medium to Differentiation medium containing the compounds or controls. (0.1 uM Rosi for stimulation or 1 uM Rosi for inhibition) Day 9: Changed medium to Adipocyte medium plus compounds. Day 12: Changed medium to Adipocyte medium plus compounds. Day 16: Cells were washed with PBS and lysed with the lysis buffer. […] The optical density was read at 540 nm after 15 minutes. […]
Compound,"human adipocyte generation (after treatment with resveratrol, FIG. 2 legend)",adipogenesis
Oc1ccc(C=Cc2cc(O)cc(O)c2)cc1 [resveratrol],decrease in human adipocyte generation,effective in reducing adipogenesis
conjugated linoleic acid,,effective in reducing adipogenesis
